Experimental data taken from US8580789B2, “Treating glaucoma” (The Cleveland Clinic Foundation, priority 2007, dated 2013).
“And” between values parts separate entries of the source, which are not always exact repeats. Equal entries are not always repeated.

Experiments:
Design in all cases: species or system porcine
[1] = system: optic nerve/lamina cribrosa complex; experiment: Surface wave velocity (stiffness) across the optic nerve/lamina cribrosa complex of whole globes, Sonic Eye elastometer; details: for Mean ON/LCC Stiffness, After Glutaraldehyde Crosslinking: Example 2, GTA annular sponge on PS only ~30 min
Experimental: (§1) Surface wave velocity (SWV) is a measure of tissue stiffness, and is performed by detecting the velocity of an ultrasonic wave between 2 points (Sonic Eye, Priavision, Menlo Park, Calif.) (Dupps W J, et al., J Refract Surg; 23: 66-75 (2007)). 19 porcine eyes were divided into 2 groups. In group 1 (6 eyes), the SWV across the exposed optic nerve/lamina cribrosa complex (ON/LCC) was initially measured at the eyes' physiologic IOP and at 100 mmHg. The porcine globes were cannulated with IV tubing to facilitate the change in IOP. In group 2 (13 eyes), the pre-treatment SWV was measured across the same region and atop the peri-papillary sclera, after which both regions were treated with riboflavin 1%, Q 5 min×6, and UVA irradiation (˜365 nm at 3 mW/cm^2) for 30 min per eye. The SWV was then re-measured in each eye at the pre-treatment IOP and at 100 mmHg.
(§2) An annular sponge soaked in GTA was exposed to the peripapillary sclera for ˜30 minutes, and not the ON/LCC. Measurements were repeated as above, but also along each quadrant of peripapillary sclera to ensure uniformity and symmetry of crosslinking around the ON/LCC. The results are summarized as follows:
(§3) Eighteen porcine globes were divided evenly into 3 groups. The optic nerves were transected to expose the ON/LC, and each globe was infused through an in-line pressure transducer for direct IOP control. Surface wave velocity, a non-destructive measure of tissue stiffness, was measured across the ON/LC and PS before and after collagen crosslinking at IOP of 10 and 30 mmHg (groups 1 and 2) and at each globe's preinflation IOP and 80 mmHg (group 3). In group 3, papillary strain was measured by analyzing the displacement of fiducial marks immediately adjacent to the ON/LC using digital photography.
(§4) Surface wave velocity (SWV) is a measure of tissue stiffness that has been used in dermatologic applications to measure age-related changes (Potts R O, et al., J Invest Dermatol.; 82(1):97-100 (1984); Potts R O, et al., J Biomech.; 16(6):365-372 (1983); Davis B R, et al., Exp Gerontol; 24(3):201-210 (1989)), softening effects of tissue hydration and skin creams (Vexler A, et al., J Invest Dermatol; 113(5):732-739 (1999)), and sclerosing effects of radiation on breast skin (Gorodetsky R, et al., Int J Radiat Oncol Biol Phys.; 45(4):893-900 (1999)). When acoustic waves in the 0.5 to 30 kHz frequency range are used, propagation speed in skin is related to the density and stiffness of the tissue (Pereira J M, et al., J Biomech.; 23(8):745-751 (1990)). A prototype handheld ocular surface elastometer (Sonic Eye, Priavision, Menlo Park, Calif.) with an operating frequency within this range (4 kHz) and a fixed 4.5 mm wave propagation distance has been described in detail elsewhere (Dupps W J Jr, et al., J Refract Surg.; 23(1):66-75 (2007)). The Sonic Eye was used in this study as a non-destructive means of measuring local in situ tissue stiffness across and around the optic nerve head.
Eighteen porcine eyes were obtained from a local abattoir (Heffelfingers Meats, Inc., Jeromesville, Ohio) and were used within 24 hours postmortem. The optic nerves were dissected under microscopic visualization to expose the ON/LC (FIG. 1). […]
(§5) Three experimental groups of 6 eyes each were defined. In group 1, SWV across the optic nerve/lamina cribrosa complex and peripapillary scleral regions of interest were measured at 10 and 30 mmHg to represent a physiological range of pressures. […]

peripapillary sclera [2] = experiment: Surface wave velocity (stiffness) of the peripapillary sclera of whole globes, Sonic Eye elastometer; details: for Mean PPS Stiffness, After Glutaraldehyde Crosslinking: Example 2, GTA annular sponge on PS only ~30 min; for Stiffness of Peripapillary Sclera, Post-crosslinking Mean ± SD: 4% GTA on PS only 30 min
Experimental: as §1, §2, §3, §4
Eighteen porcine eyes were obtained from a local abattoir (Heffelfingers Meats, Inc., Jeromesville, Ohio) and were used within 24 hours postmortem. The optic nerves were dissected under microscopic visualization to expose the ON/LC (FIG. 1). […] Replicate SWV measurements were obtained at a rate of 1 per second with a triggering foot pedal to produce at least 5 measurements that were subsequently averaged for each region of interest. A PC software interface converted the time-of-flight data to velocity in meters per second (m/s), and the velocity data were exported to Excel (v. 11, SP2; Microsoft Corp, Redmond, Wash.) and Minitab (v. 14.20; Minitab Inc, State College, Pa.) for statistical analysis.
as §5

peripapillary sclera [3] = experiment: Photographic circumferential strain analysis during IOP elevation, peripapillary sclera; details: Group 3; GTA on PS only; IOP 2-4 to 80 mmHg
Experimental: as §3
In group 3 (n=6), the same procedure described for group 2 was implemented with the following exceptions. First, four fiducial ink marks were placed in each quadrant of the PS immediately adjacent to the ON/LC prior to measurement. High-resolution (7.1 megapixel) digital photos were then taken at both low and high IOP before and after crosslinking. The vertical and horizontal distances between the outer extent of the ink marks and the outer margins of the optic nerve were measured in Photoshop (Adobe Systems, Inc., San Jose, Calif.), and the centripetal displacement of the fiducial marks (Δ1) was divided by the initial distance between the marks (10) to yield dimensionless indicators of circumferential strain (ζ=Δ1/10) in the peripapillary sclera and ON/LC, respectively. Second, measurements were acquired at each eye's pre-inflation pressure (between 2 to 4 mmHg) and at 80 mmHg to ensure that measurable changes in SWV and ON/LC geometry would be generated in at least one experimental group. As in group 2, the peripapillary sclera was selectively exposed to GTA and post-crosslinking measurements were repeated at low and high IOP. Same-eye statistical comparisons of wave velocity and strain were performed with paired student's t-tests.

## O=CCCCC=O [GTA, glutaraldehyde]
[1]; mean IOP 3 mmHg
  Mean ON/LCC Stiffness, After Glutaraldehyde Crosslinking: 29.5 m/s
[1]; mean IOP 80 mmHg
  Mean ON/LCC Stiffness, After Glutaraldehyde Crosslinking: 29.3 m/s
[1]; Example 3 Group 3, 4% GTA on PS only 30 min, Low IOP = pre-inflation 2-4 mmHg
  Stiffness of Optic Nerve/Lamina Cribrosa Complex, Post-crosslinking Mean ± SD: 29.5±2.9 m/s
Peripapillary sclera [2]; mean IOP 3 mmHg
  Mean PPS Stiffness, After Glutaraldehyde Crosslinking: 83.6 m/s
Peripapillary sclera [2]; mean IOP 80 mmHg
  Mean PPS Stiffness, After Glutaraldehyde Crosslinking: 97.9 m/s
Peripapillary sclera [2]; Example 3 Group 2, High IOP 30 mmHg
  Stiffness of Peripapillary Sclera, Post-crosslinking Mean ± SD: 197.0±35.6 m/s
Peripapillary sclera [2]; Example 3 Group 2, Low IOP 10 mmHg
  Stiffness of Peripapillary Sclera, Post-crosslinking Mean ± SD: 148.4±43.0 m/s
Peripapillary sclera [2]; Example 3 Group 3, High IOP 80 mmHg
  Stiffness of Peripapillary Sclera, Post-crosslinking Mean ± SD: 190.2±45.8 m/s
Peripapillary sclera [2]; Example 3 Group 3, Low IOP = pre-inflation 2-4 mmHg
  Stiffness of Peripapillary Sclera, Post-crosslinking Mean ± SD: 149.9±35.7 m/s
Peripapillary sclera [3]
  Average Circumferential Strain of PS with IOP elevation, Post-Crosslinking Mean ± SD: 0.38% and 0.4 ± 1.3%
  Horizontal Circumferential Strain of PS with IOP elevation, Post-Crosslinking Mean ± SD: 0.0 ± 0.0%
  Vertical Circumferential Strain of PS with IOP elevation, Post-Crosslinking Mean ± SD: 0.7 ± 1.9%
